According to article PMC9787607, “A Novel Protocol for the Synthesis of 1,2,4-Oxadiazoles Active against Trypanosomatids and Drug-Resistant Leukemia Cell Lines” (Tropical Medicine and Infectious Disease, 2022):

Tests used:
[1] = test system: K562; assay: MTT cytotoxicity to CML cell line K562; format: cell-based; settings: Homo sapiens, 72 h
Description: (§1) The CML cell lines K562, Lucena-1 (K562/VCR), and FEPS (K562/DNR) were cultured in RPMI-1640 medium supplemented with 25 mM HEPES and 2 g L^−1 sodium bicarbonate adjusted to pH 7.4 with NaOH, 100 U penicillin and […] streptomycin. All media were supplemented with 10% FBS. Dr. Vivian M. Rumjanek (Instituto de Bioquímica Médica, UFRJ, Brazil) kindly donated Lucena-1 and FEPS cells. Briefly, K562 cells were exposed to increasing concentrations of the chemotherapeutic drugs vincristine sulfate (VCR) and daunorubicin hydrochloride (DNR) (both from Sigma-Aldrich), as described previously. Lucena-1 (K562/VCR) and FEPS (K562/DNR) cells were cultured in the presence of either 60 nM VCR or 500 nM DNR to maintain the MDR phenotypes. For subcultures, cells were harvested every three days followed by washing with cold FBS, and a final concentration of 2 × 10^4 cells mL^−1 was maintained at 37 °C in 5% CO2.
(§2) Cell viability was determined by the 3-(4,5-dimethylthiazol-2-yl)-2,5-diphenyltetrazolium (MTT) colorimetric assay. CML cells (2 × 10^4 cells·mL^−1) were incubated for 72 h at 37 °C, followed by treatment with compounds at a range of concentrations (100–1 μM). Negative controls were prepared with 0.5% DMSO. An MTT salt solution was added to each well to a final concentration of 0.5 g·L^−1, and plates were incubated at 37 °C in 5% CO2 for 3 h. After centrifugation, 200 μL DMSO was added to dissolve the dark-blue formazan crystals formed by MTT reduction. Absorbance was measured on a microplate reader at 570 nm, which is directly proportional to formazan contents and indicative of living cells.
(§3) The percent cell or parasite viability was calculated by the formula: % viability = [(A − P)/(N − P)] × 100, A = absorbance of specific well, P = positive control, N = negative control. Determination of half-maximal effective concentrations (EC50), calculated by logarithmic regression, and significance analysis (p < 0.05), using ANOVA and Dunnett’s test, by GraphPad Prism 7.0 software. The results are expressed as the mean and standard deviation (SD) of three independent experiments.

[2] = test system: Lucena-1 (K562/VCR); assay: cells; format: cell-based, human; settings: for RR (relative resistance) Lucena-1: (EC50 MDR cells)/(EC50 parental cells), Lucena-1/K562; for EC50: Homo sapiens, Lucena 1, 72 h, read-out: EC50 Lucena-1
How it was run: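 K562 and its MDR sublines Lucena-1 (maintained in 60 nM VCR) and FEPS (500 nM DNR) seeded at 2 × 10^4 cells/mL in RPMI-1640 with 10% FBS, treated with compounds at 1–100 μM (0.5% DMSO controls). MTT 0.5 g/L for 3 h, A570 read; EC50 by logarithmic regression, three independent experiments.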

[3] = test system: drug-sensitive and drug-resistant chronic myeloid leukemia cell lines (K562, Lucena-1, FEPS); assay: MTT cytotoxicity to CML cell lines, statements over all lines; format: cell-based; settings: Homo sapiens, K562-Lucena 1, statement over K562, Lucena-1 and FEPS; read-out: EC50 against CML cell lines
Description: as §1, §2

[4] = Cytotoxicity to LLC-MK2 host cells (MTT); format: cell-based; settings: rhesus monkey, LLC-MK2 cells (kidney fibroblasts); for viability at 120 h, 50 µM: screening at 50 μM
Description: (§4) LLC-MK2 kidney fibroblasts (ATCC) and RAW 264.7 macrophages (ATCC) were cultivated in culture flasks in complete DMEM with 5% FBS at 37 °C in 5% CO2. The LLC-MK2 cell monolayer was detached by treatment with trypsin-EDTA 0.05% for 5 min at 37 °C. The RAW cell monolayer was detached mechanically. In both cases, the cells were centrifuged at 480× g for 6 min and resuspended in complete DMEM with 5% FBS, and the cell density was determined by counting with trypan-blue dye exclusion on Neubauer chambers before use.
(§5) LLC-MK2 cells were seeded in a 96-well microplate (1.0 × 10^4 cells per well) in complete DMEM with 5% FBS (120 µL per well). After incubation for 24 h at 37 °C in 5% CO2, the medium was renewed, and compounds were added at a range of concentrations in triplicate (50 μM or 100–1 μM). Untreated cells and cells treated with DMEM and 10% DMSO were used as negative and positive controls, respectively. Vehicle control containing DMEM and 0.3% DMSO was maintained for comparison. After incubation for 120 h at 37 °C in 5% CO2, the medium was renewed, and MTT salt solution in PBS was added (3.0 mM, 20 µL per well). After incubation for 2 h at 37 °C in 5% CO2, the supernatant was removed, and MTT formazan was dissolved in DMSO (150 µL per well). Absorbance was measured using a microplate reader at 570 nm.
as §3

[5] = test system: LLC-MK2 cells; assay: Cytotoxicity to LLC-MK2 host cells (MTT); format: cell-based; settings: Macaca mulatta, LLC-MK2; 120 h, MTT
Description: as §4, §5, §3

[6] = test system: RAW 264.7 cells; assay: Cytotoxicity to RAW 264.7 cells (MTT); format: cell-based, murine; settings: Mus musculus, RAW264.7; 48 h, MTT; read-out: EC50 RAW
Description: as §4
RAW 264.7 cells were seeded in a 96-well microplate (2.0 × 10^4 cells per well) in complete DMEM with 5% FBS (120 µL per well). After incubation for 24 h at 37 °C in 5% CO2, the medium was renewed, and compounds were added at a range of concentrations in triplicate (100–1 μM). Untreated cells and cells treated with DMEM and 10% DMSO were used as negative and positive controls, respectively. Vehicle control containing DMEM and 0.3% DMSO was maintained for comparison. After incubation for 48 h at 37 °C in 5% CO2, the medium was renewed, and an MTT solution in PBS was added (3.0 mM, 20 µL per well). After incubation for 2 h at 37 °C in 5% CO2, the supernatant was removed, and MTT formazan was dissolved in DMSO (150 µL per well). Absorbance was measured using a microplate reader at 570 nm.
as §3

[7] = Cytotoxicity to BALB/c mouse total splenocytes (MTT); format: cell-based; settings: male; for viability at 48 h, 100 µM / viability at 48 h, 0.4 µM / viability at 48 h, 1 µM / viability at 48 h, 2.6 µM / viability at 48 h, 6.4 µM / viability at 48 h, 16 µM / viability at 48 h, 40 µM: total splenocytes (primary); for EC50 at 48 h: primary total splenocytes, MTT, read-out: EC50 murine splenocytes
Description: BALB/c mouse total splenocytes were harvested from male mice between 6–8 weeks old. After euthanasia, the spleens were removed and macerated in DMEM. After centrifugation, the cells were treated with hemolytic ACK buffer at 37 °C for 5 min. […] After incubation for 48 h at 37 °C in 5% CO2, cell viability was determined after the addition of 20 µL per well of a solution containing MTT salt (3.0 mM) and phenazine metasulphate (0.72 mM). After further incubation for 1 h at 37 °C, the medium was removed, and DMSO was added to dissolve the dark-blue formazan crystals formed by MTT reduction. Absorbance was measured on a microplate reader at 570 nm.
as §3

[8] = 100 μM, 48 h, compared to the untreated control (Table S1)
[9] = Table S2 dose-dependent, 100 µM

SMILES	EC50 [1]	RR (relative resistance) Lucena-1 [2]	EC50 [2]	EC50 [3]	viability at 120 h, 50 µM [4]	EC50 [5]	EC50 [6]	viability at 48 h, 100 µM [7, 8]	EC50 at 48 h ([7]; 48 h)	viability at 48 h, 0.4 µM ([7]; Table S2 dose-dependent)	viability at 48 h, 1 µM ([7]; Table S2 dose-dependent)	viability at 48 h, 2.6 µM ([7]; Table S2 dose-dependent)	viability at 48 h, 6.4 µM ([7]; Table S2 dose-dependent)	viability at 48 h, 16 µM ([7]; Table S2 dose-dependent)	viability at 48 h, 40 µM ([7]; Table S2 dose-dependent)	viability at 48 h, 100 µM [7, 9]	viability at 120 h, 1 µM ([4]; host cells at 1.0 μM, read-out: host cell viability)
COc1cc(/C=C/c2nc(-c3ccccc3)no2)cc(OC)c1OC [Compound 12, (E)-3-phenyl-5-[2-(3,4,5-trimethoxyphenyl)vinyl]-1,2,4-oxadiazole]	18 ± 0.9 µM	2.42	43.5 ± 1.8 µM	< 20 µM	88.2 ± 5.2%	> 100 µM	> 100 µM	72.1 ± 6.5%									
C(=C\c1nc(-c2ccccc2)no1)/c1cccnc1 [Compound 15, (E)-3-phenyl-5-[2-pyridyn-3-yl-vinyl]-1,2,4-oxadiazole]	27.6 ± 5.8 µM	0.97	26.7 ± 7.2 µM	< 20 µM		> 100 µM			52.2 ± 4.51 µM	94.5 ± 9.1%	92.7 ± 4.1%	86.3 ± 7.5%	90.2 ± 10.7%	77.7 ± 4.8%	63.1 ± 5.8%	29.5 ± 1.6%	
COc1cc(/C=C/c2nc(-c3cc(OC)c(OC)c(OC)c3)no2)cc(OC)c1OC [Compound 23, (E)-3-(3,4,5-trimethoxyphenyl)-5-[2-(3,4,5-trimethoxyphenyl)-vinyl]-1,2,4-oxadiazole]	13.2 ± 2.9 µM	0.94	12.4 ± 2.5 µM		64.1 ± 4.4%	78 ± 4.7 µM	> 100 µM		33.3 ± 2.83 µM	97.3 ± 3.3%	94.9 ± 4%	95 ± 4.4%	84.6 ± 6.7%	69.5 ± 6.4%	43.4 ± 4.2%	14.1 ± 3.5%	93 ± 4.4%
COc1cc(-c2noc(/C=C/c3ccc4c(c3)OCO4)n2)cc(OC)c1OC [Compound 24, (E)-3-(3,4,5-trimethoxyphenyl)-5-[2-(3,4-methylenedioxy-phenyl)vinyl]-1,2,4-oxadiazole]	60.4 ± 4.1 µM	1.37	82.6 ± 10.8 µM	< 20 µM	55.9 ± 9.3%	53.4 ± 2.6 µM	58.8 ± 6.1 µM	72.8 ± 4.2%									
